Source: PMC11912224, “A general approach for activity-based protein profiling of oxidoreductases with redox-differentiated diarylhalonium warheads” (Chemical Science, 2025)

How the values were obtained:
[1] = molecular target: T1, retinol dehydrogenase RDH16 (Mus musculus, UniProt O54909); assay: covalent labelling, streptavidin enrichment, LC-MS/MS; details: 30 uM probe, 1 h, mouse liver pieces
T1 construct: native, in intact mouse liver pieces
T1 sequence (O54909 1-317): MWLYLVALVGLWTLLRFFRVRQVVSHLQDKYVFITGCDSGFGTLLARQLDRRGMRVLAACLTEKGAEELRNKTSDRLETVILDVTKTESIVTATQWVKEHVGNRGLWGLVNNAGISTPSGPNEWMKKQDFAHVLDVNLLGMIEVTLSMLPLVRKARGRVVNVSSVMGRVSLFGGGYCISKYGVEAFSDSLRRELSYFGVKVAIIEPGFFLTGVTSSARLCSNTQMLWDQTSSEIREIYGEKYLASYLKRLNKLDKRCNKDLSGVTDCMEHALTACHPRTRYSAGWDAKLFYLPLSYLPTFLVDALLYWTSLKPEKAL

[2] = molecular target: T2, CYP27A1 (sterol-26-hydroxylase) (Mus musculus, UniProt Q9DBG1); assay: as above; details: 30 uM probe, 1 h, mouse liver pieces
T2 construct: native, in intact mouse liver pieces
T2 sequence (Q9DBG1 33-533): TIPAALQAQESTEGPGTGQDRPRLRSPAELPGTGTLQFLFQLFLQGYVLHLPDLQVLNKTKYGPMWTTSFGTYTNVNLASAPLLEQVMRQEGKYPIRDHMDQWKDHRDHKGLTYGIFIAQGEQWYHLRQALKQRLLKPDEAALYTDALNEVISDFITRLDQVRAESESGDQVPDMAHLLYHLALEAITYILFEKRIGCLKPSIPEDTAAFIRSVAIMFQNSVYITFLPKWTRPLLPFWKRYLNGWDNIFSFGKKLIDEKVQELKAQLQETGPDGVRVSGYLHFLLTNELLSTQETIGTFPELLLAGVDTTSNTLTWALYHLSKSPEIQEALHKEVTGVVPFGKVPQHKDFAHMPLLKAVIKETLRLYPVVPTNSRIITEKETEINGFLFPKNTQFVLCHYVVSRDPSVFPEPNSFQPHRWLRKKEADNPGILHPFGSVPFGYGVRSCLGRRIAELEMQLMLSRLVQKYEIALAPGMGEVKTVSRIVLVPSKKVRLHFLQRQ

[N-]=[N+]=NCCCCCCCCCCNC(=O)c1ccc([I+]c2ccccc2)cc1 [3aa, diphenyliodonium probe 3aa]
covalent labelling, streptavidin enrichment, LC-MS/MS [1]: RDH7 and RDH16 were found to be labeled by probe 3aa very well | covalent labelling, streptavidin enrichment, LC-MS/MS [2]: cytochrome P450 monooxygenases (CYP3A25, CYP27A1)
